Assay results from patent publication US20230107216A1, “PANTETHEINE DERIVATIVES AND USES THEREOF” (Comet Therapeutics, Inc., priority 2018, published 2023).
Read-outs that look alike come from different tables or passages of the source.

Columns and labels:
[1] = system: Bronchial epithelial cells (BE3C system); experiment: BioMAP BE3C system (IL-1β, TNFα, IFNγ); type: cell-based, human; conditions: 10 uM, procedure of Example 831; for inhibition at 10 µM: Homo sapiens, Epithelial cell, 24 h, read-out: % decrease in MMP-1
HepG2 cells = experiment: Glucose uptake (Glucose Uptake-Glo); type: cell-based; conditions: Homo sapiens, 10 uM, read-out: % increase in Glucose Uptake
[2] = system: Propionic Acidemia (PA) primary fibroblasts GM00371; experiment: Mitochondrial respiration, XFe96 Extracellular Flux Analyzer (OCR/ECAR), PA fibroblasts GM00371; type: cell-based; conditions: Homo sapiens, Fibroblast, read-out: Increase in Maximal Respiratory Capacity AUC; for activation at 50 µM: assay condition C (10 mM glucose, 10% FBS)
[3] = system: Dermal fibroblasts (HDF3CGF system); experiment: BioMAP HDF3CGF system (IL-1β, TNFα, IFNγ, EGF, bFGF, PDGF-BB); type: cell-based, human
[4] = system: Venular Endothelial cells (HUVEC) (3C system); experiment: BioMAP 3C system (IL-1β, TNFα, IFNγ); type: cell-based, human; conditions: 10 uM; procedure of Example 825
Description: The BioMAP platform (BioMAP® Diversity PLUS® Panel from Eurofins) is an in vitro phenotypic profiling technology that screened the compounds of the present disclosure (hereafter indicated as test agents) in human primary cell-based systems modelling complex tissue and disease states. The BioMAP assays were performed using the Eurofin's BioMAP Technology Platform as (see references 1 to 13 in the example 824 section) to model different diseases on primary cell-based model systems. These systems consisted of either single primary cell types or co-culture cells. Adherent cell types were cultured or co-cultured in 96 or 384-well plates until confluence followed by the addition of compounds prepared in DMSO at a final concentration of ≤0.1%. In each cell-based system, primary cells from heathy donors (2-6 donors) were pooled and treated with compounds at 1 and 10 μM dose 1h prior to stimulation and remain in culture as indicated in Example 825, Example 826, Example 827, Example 828, Example 829, Example 830, Example 831, Example 832, Example 833, Example 834, Example 835, Example 836 and Example 837. For on the BioMAP® Diversity PLUS® Panel, please see the following references, which are incorporate herein.
Following the general procedure as described in Example 824, Venular Endothelial cells (HUVEC) (3C system) were treated with IL-1β, TNFα, IFNγ for 24h to model Th1 driven cardiovascular and chronic inflammation diseases in the presence or absence of the compounds. Biomarker read out were; Tissue Factor, ICAM-1, E-selectin, uPAR (CD87), IL-8, MIG, HLA-DR, proliferation and SRB (Sulfo-rhodamine i.e. staining for protein content).

[5] = system: Venular Endothelial cells (HUVEC) (4H system); experiment: BioMAP 4H system (IL-4 and histamine); type: cell-based, human; conditions: procedure of Example 826; for inhibition at 1 µM: Homo sapiens, HUVEC, 24 h, read-out: % decrease in VEGFRII
[6] = system: Coronary artery smooth muscle cells (CASM3C system); experiment: BioMAP CASM3C system (IL-1β, TNFα, IFNγ); type: cell-based, human; conditions: for inhibition at 10 µM: Homo sapiens, 24 h, read-out: % decrease in Thrombomodulin
[7] = system: Peripheral blood mononuclear cells co-cultured with B-cells (BT system); experiment: cells; conditions: Homo sapiens, 72 h
[8] = system: Bronchial epithelial cells co-cultured with dermal fibroblast (BF4T system); experiment: BioMAP BF4T system (TNFα and IL-4); type: cell-based, human; conditions: procedure of Example 830
[9] = system: Peripheral blood mononuclear cells co-cultured with venular endothelial cells (HUVEC) (LPS system); experiment: BioMAP LPS system; type: cell-based, human; conditions: procedure of Example 827; for inhibition at 1 µM / activation at 10 µM / inhibition at 10 µM: Homo sapiens, HUVEC, 24 h; for activation at 10 µM: read-out: % increase in sTNFα
[10] = system: Peripheral blood mononuclear cells co-cultured with B-cells (BT system)
[11] = system: primary culture of rat embryo mesencephalic cells (microglia, astrocytes and neurons) exposed to LPS; experiment: Neuroprotective effect on damage induced by LPS on culture of mesencephalic neurons (NO, TNF-α, IL-1β, TH positive neurons); type: cell-based; conditions: 50 uM, after 5 days of LPS exposure; for inhibition at 50 µM: Rattus norvegicus, Neuron, 120 h, read-out: % reversion of TH positive neurons
Description: Drug preparation. […] The stock solutions will be prepared 1000× the concentration in 100% DMSO. The final concentration of the vehicle (DMSO) is set at 0.1%.
Test animals. Pregnant Wistar rats (Janvier; France) are used for the study. They are group-housed and maintained in a room with controlled temperature (21-22° C.) and a reversed light-dark cycle (12h/12h; lights on: 17:30-05:30; lights off: 05:30-17:30) with food and water available ad libitum.
The protocol is performed in 3 independent cultures. For each culture, each condition is performed in sextuplicate.
Female rat of 15 days gestation is killed by cervical dislocation. Fetuses are removed from the uterus and their brains are harvested and placed in ice-cold medium (Leibovitz's L15 medium, Gibco). Only ventral mesencephalic flexure is used for the cell preparations. The midbrain is dissociated by trypsinization. The reaction is stopped, and the suspension is triturated and centrifuged. The pellet of dissociated cells is resuspended in culture medium consisted of DMEM-F12 (Gibco), containing 10% FBS (ATCC), 10% Horse serum (Gibco) and 2 mM L-glutamine (Gibco). Viable cells are counted and seeded on 96-well plates, precoated with poly-L-lysine. Cells are maintained in a humidified incubator at 37° C. in 5% CO2-95% air atmosphere. Half of the medium is changed on day 2 and day 5.
Treatment. On day 7, culture media are removed and replaced by new medium consisting of DMEM-F12 (Gibco) supplemented with 2% FBS (ATCC), 2% Horse serum (Gibco) and 2 mM L-glutamine (Gibco) and containing vehicle or test substances. After 1-hour exposure, LPS at 10 ng/ml is added and exposure further continued for 24 hours or 5 days period.
Inflammatory response measurement and neuronal death evaluation. NO production is measured in the media 24h and 5 days after LPS exposure using the Griess reagent kit (Molecular Probes). The Griess reagent Assay is a colorimetric reaction assay which measures the conversion of a sulfanilic salt into an azo dye product by nitrite. Visible wavelength absorbance data is collected using a 96-well plate reader at 570 nm (Multiskan EX, Thermo Fisher, France). IL-1β and TNF-α release are measured in the media 24h after LPS exposure using the ELISA development kit (PeproTech). The ELISA plate, previously coated with anti-IL-1β or anti-TNF-αantibody at 1 μg/ml, is incubated 1h with PBS containing 1% of BSA (bovine serum albumin). After washing four times with PBS containing 0.05% of Tween-20, the plate is successively incubated 2h with supernatant, 2h with biotinylated antibody at 0.5 μg/ml in PBS containing 0.1% of BSA and 0.05% of Tween-20, 45 min with Avidin-HRP conjugated at 1/2000 and 30 min with color ABTS substrate (Sigma). Visible wavelength absorbance data is collected using a 96-well plate reader at 405 nm with wavelength correction set at 650 nm (Multiskan EX, Thermo Fisher, France).
Immunodetection of tyrosine hydroxylase positive neurons. On day 12 (5 days after LPS exposure), cultures are fixed 30 min at 4° C. with paraformaldehyde in PBS (4%, Sigma). Then, cells are successively permeabilized with 0.1% Triton X100 for 30 min, saturated with PBS containing 3% of BSA (bovine serum albumin) and are incubated 2h with anti-tyrosine hydroxylase antibody (Sigma, 1:10000; clone TH-2) at 1/10 000 in PBS containing 0.5% of BSA. Cells are washed three times with PBS containing 0.5% of BSA, and they are incubated 1h with goat anti mouse antibody coupled with AF488 (Invitrogen A11001) diluted at 1/1000 in PBS containing 0.5% of BSA. Finally, nuclei are stained with DAPI at 1/1000 in PBS containing 0.5% of BSA. After rinsing with PBS, the plate is visualized and examined with Cell Insight HCS (Thermo Scientific) to determine the number of tyrosine hydroxylase positive cells per well.
Statistical Analysis. The drug-induced effect on NO and cytokines is calculated by setting the response of the LPS-stimulated control as 100%. […]

[12] = 10 uM, procedure of Example 833
[13] = 10 uM, procedure of Example 829

COC(=O)CCC(=O)SCCNC(=O)CCNC(=O)[C@H](O)C(C)(C)COC(=O)OCC[N+](C)(C)C [Compound 117, [2-([[(3R)-3-hydroxy-3-[[2-([2-[(4-methoxy-4-oxobutanoyl)sulfanyl]ethyl]carbamoyl)ethyl]carbamoyl]-2,2-dimethylpropoxy]carbonyl]oxy)ethyl]trimethylazanium]
≥ 20%: inhibition at 1 µM ([7]; read-out: % decrease in sIL-17) | activation at 10 µM [9]
≥ 30%: activation at 10 µM (HepG2 cells)
≥10%: % decrease in tPA [1] | % increase in Proliferation (HUVEC) [4] | % decrease in CXCL9 ([6]; 10 uM) | % decrease in tPA ([8]; 10 uM) | % increase in IL-1α ([9]; 1 uM) | % increase in Tissue Factor ([9]; 1 uM)
≥ 10%: inhibition at 10 µM [1] | activation at 50 µM [2] | activation at 10 µM ([3]; Homo sapiens, Fibroblast, 72 h, 10 uM, read-out: % increase in 72 Hour Proliferation) | inhibition at 1 µM [5] | inhibition at 10 µM ([6]; 10 uM) | activation at 10 µM ([7]; read-out: % increase in sIL-6) | inhibition at 1 µM ([9]; 1 uM, read-out: % decrease in sPGE2)

CC(=O)OCCCC(=O)SCCNC(=O)CCNC(=O)[C@H](O)C(C)(C)CO [Compound 1305, 4-[(2-[3-[(2R)-2,4-dihydroxy-3,3-dimethylbutanamido]propanamido]ethyl)sulfanyl]-4-oxobutyl acetate]
≥ 10%: inhibition at 10 µM [1] | activation at 10 µM (HepG2 cells) | activation at 50 µM [2] | activation at 10 µM ([2]; assay condition D (1 mM glucose, 10% FBS), 10 μM) | inhibition at 1 µM ([3]; Homo sapiens, Fibroblast, 24 h, 1 uM, read-out: % decrease in Collagen III) | inhibition at 1 µM [5] | inhibition at 1 µM ([9]; 1 uM, read-out: % decrease in IL-8) | inhibition at 1 µM ([9]; 1 uM, read-out: % decrease in TissueFactor)
≥20%: % increase in Proliferation (HUVEC) [4]
≥ 20%: inhibition at 10 µM ([6]; 10 uM) | inhibition at 10 µM ([7]; read-out: % decrease in sIL-17) | activation at 10 µM [9]
≥10%: % decrease in CXCL11/I-TAC [3, 12] | % increase in B-cell Proliferation [10, 13] | % decrease in MCP-1 ([5]; 10 uM) | % decrease in M-CSF ([6]; 1 uM, procedure of Example 832) | % decrease in Proliferation ([6]; 1 uM, procedure of Example 832) | % decrease in VCAM-1 ([6]; 1 uM, procedure of Example 832) | % decrease in CXCL9 ([6]; 10 uM) | % decrease in Tissue Factor ([6]; 10 uM)

COC(=O)/C=C/C(=O)SCCNC(=O)CCNC(=O)[C@H](O)C(C)(C)COC(C)=O [Compound 145, methyl (2E)-4-[(2-[3-[(2R)-4-(acetyloxy)-2-hydroxy-3,3-dimethylbutanamido]propanamido]ethyl)sulfanyl]-4-oxobut-2-enoate]
≥ 10%: inhibition at 10 µM ([3]; Homo sapiens, Fibroblast, 24 h, 10 uM, read-out: % decrease in Collagen III) | inhibition at 1 µM ([7]; read-out: % decrease in sIL-17) | activation at 1 µM ([8]; Homo sapiens, 24 h, 1 uM, read-out: % increase in VCAM-1) | inhibition at 10 µM ([9]; read-out: % decrease in IL-1α) | inhibition at 10 µM ([9]; read-out: % decrease in IL-8) | activation at 10 µM [9]
≥10%: % decrease in Collagen I [3, 12] | % decrease in sTNFα [10, 13] | % decrease in IL-8 [4] | % decrease in LDLR ([6]; 1 uM, procedure of Example 832) | % decrease in HLA-DR ([6]; 10 uM) | % increase in tPA ([8]; 10 uM)
≥ 50%: inhibition at 50 µM ([11]; list at threshold 50%)
≥ 30%: activation at 10 µM (HepG2 cells)
≥35%: % decrease in NO release relative to LPS alone [11]
≥20%: % decrease in B-cell proliferation ([10]; 1 uM, procedure of Example 829) | % decrease in PBMC cytotoxicity ([10]; human, 72 h, 10 µM)
≥ 15%: inhibition at 50 µM ([11]; list at threshold 15%)
